Source: patent US8063069B2, “Prucalopride-N-oxide” (Janssen Pharmaceutica N.V., priority 2002, dated 2011)
Read-outs that look alike come from different tables or passages of the source.

Experiments:
[1] = pharmacokinetics of prucalopride in plasma after single oral administration to beagle dogs; format: in vivo; conditions: for Cmax / Tmax: dog, plasma, po, 2.5 mg/kg; for Cmax: read-out: Cmax peak plasma concentration of prucalopride; for Tmax: read-out: Tmax time to reach the peak plasma concentration of prucalopride
Description: Two male beagle dogs were dosed orally with 1 ml of a test formulation comprising 2.5 mg/kg of 4-amino-5-chloro-2,3-dihydro-N-[1-(3-methoxypropyl)-4-piperidinyl]-7-benzofuran-carboxamide (“prucalopride”).
After a wash-out period of four weeks, the same two dogs were dosed orally with 1 ml of a test formulation comprising 2.61 mg/kg of compound (1).
Blood samples were taken via the jugular vein immediately before dosing (blank sample) and at 0.25 h, 0.5 h, 1 h, 1.5 h, 2 h, 4 h, 6 h, 8 h, and 24 h after dosing. Aliquots of 10 ml were collected in EDTA tubes. Immediately after collection of the blood samples, plasma samples were prepared by centrifugation at approximately 1700×g for approximately 10 minutes.
Concentrations of prucalopride in the plasma samples were determined by LC/MS/MS. The quantification limit for prucalopride was 5.0 ng/ml.
Based on the individual plasma concentration-time data, using the actual sampling times, the following pharmacokinetic parameters were determined for prucalopride after oral administration of prucalopride and compound (1) and summarized in Table 1. • Cmax peak plasma concentration, determined by visual inspection of the data • Tmax time to reach the peak plasma concentration, determined by visual inspection of the data. • AUC0-∞ area under the plasma concentration-time extrapolated to infinity

[2] = target: 5-HT2A receptors (Homo sapiens, UniProt P28223); conditions: in words; cited from earlier work
Chain of 5-HT2A receptors (P28223 whole entry): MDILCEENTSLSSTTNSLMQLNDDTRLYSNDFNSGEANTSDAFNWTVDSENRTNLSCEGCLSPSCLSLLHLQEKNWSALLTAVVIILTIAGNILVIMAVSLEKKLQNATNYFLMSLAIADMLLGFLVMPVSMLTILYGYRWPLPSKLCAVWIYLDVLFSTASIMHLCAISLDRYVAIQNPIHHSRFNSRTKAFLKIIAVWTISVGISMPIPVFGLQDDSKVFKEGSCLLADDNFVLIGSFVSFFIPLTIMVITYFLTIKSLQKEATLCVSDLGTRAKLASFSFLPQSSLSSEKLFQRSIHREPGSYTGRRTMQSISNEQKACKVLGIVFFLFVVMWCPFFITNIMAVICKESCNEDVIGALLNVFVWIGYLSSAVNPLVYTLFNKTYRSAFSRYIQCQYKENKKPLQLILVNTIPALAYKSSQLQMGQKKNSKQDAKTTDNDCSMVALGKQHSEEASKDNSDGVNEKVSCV

[3] = target: T1, 5-HT3A receptors (Homo sapiens, UniProt P46098); conditions: in words; cited from earlier work
T1 sequence (P46098 24-478): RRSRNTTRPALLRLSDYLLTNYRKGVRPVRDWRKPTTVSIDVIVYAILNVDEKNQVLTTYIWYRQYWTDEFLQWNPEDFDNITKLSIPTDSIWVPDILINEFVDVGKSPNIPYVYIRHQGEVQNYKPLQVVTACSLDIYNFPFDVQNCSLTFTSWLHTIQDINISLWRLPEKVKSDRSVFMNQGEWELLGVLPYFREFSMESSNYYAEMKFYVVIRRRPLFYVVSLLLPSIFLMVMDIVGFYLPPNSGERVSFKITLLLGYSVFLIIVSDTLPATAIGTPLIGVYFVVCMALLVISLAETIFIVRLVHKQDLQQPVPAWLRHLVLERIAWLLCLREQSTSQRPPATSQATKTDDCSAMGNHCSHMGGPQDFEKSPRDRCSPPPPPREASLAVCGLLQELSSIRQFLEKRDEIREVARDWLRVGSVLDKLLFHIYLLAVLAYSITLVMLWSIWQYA

[4] = target: 5-HT4 receptors (Homo sapiens, UniProt Q13639); conditions: in words; cited from earlier work
Chain of 5-HT4 receptors (Q13639 whole entry): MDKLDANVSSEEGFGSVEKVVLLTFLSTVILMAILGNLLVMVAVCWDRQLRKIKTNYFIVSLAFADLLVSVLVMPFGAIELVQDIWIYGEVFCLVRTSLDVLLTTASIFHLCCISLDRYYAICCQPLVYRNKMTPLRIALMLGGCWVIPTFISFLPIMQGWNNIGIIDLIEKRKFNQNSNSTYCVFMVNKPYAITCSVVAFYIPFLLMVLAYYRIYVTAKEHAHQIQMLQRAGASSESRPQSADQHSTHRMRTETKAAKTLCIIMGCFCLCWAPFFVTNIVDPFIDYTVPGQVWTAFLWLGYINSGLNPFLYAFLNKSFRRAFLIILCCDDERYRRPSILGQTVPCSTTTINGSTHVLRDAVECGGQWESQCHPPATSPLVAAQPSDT

[5] = system: colon; conditions: in words, cited from earlier work
[6] = Dog 1, oral administration of compound (1) 2.61 mg/kg, prucalopride measured in plasma
[7] = Dog 2, oral administration of compound (1) 2.61 mg/kg, prucalopride measured in plasma
[8] = oral administration, dogs, in words
[9] = male, beagle, Dog 1, oral administration of prucalopride 2.5 mg/kg, prucalopride measured in plasma
[10] = male, beagle, Dog 2, oral administration of prucalopride 2.5 mg/kg, prucalopride measured in plasma

Row | AUC0-∞ area under the plasma concentration-time extrapolated to infinity, prucalopride [1, 6] [ng·h/mL] | Cmax peak plasma concentration of prucalopride [1, 6] [ng/mL] | Tmax time to reach the peak plasma concentration of prucalopride [1, 6] [h] | AUC0-∞ area under the plasma concentration-time extrapolated to infinity, prucalopride [1, 7] [ng·h/mL] | Cmax peak plasma concentration of prucalopride [1, 7] [ng/mL] | Tmax time to reach the peak plasma concentration of prucalopride [1, 7] [h] | peak plasma concentration Cmax of prucalopride, compared with oral prucalopride [1, 8] | systemic exposure to prucalopride, compared with oral prucalopride itself [1, 8] | AUC0-∞ area under the plasma concentration-time extrapolated to infinity, prucalopride ([1]; Dog 2, oral administration of prucalopride 2.5 mg/kg, prucalopride measured in plasma) [ng·h/mL] | Cmax [1, 9] [ng/mL] | Tmax [1, 9] [h] | Cmax [1, 10] [ng/mL] | Tmax [1, 10] [h] | AUC(0-inf) ([1]; male, beagle, Dog 1, oral administration of prucalopride 2.5 mg/kg, prucalopride measured in plasma, read-out: AUC0-∞ area under the plasma concentration-time extrapolated to infinity, prucalopride) [ng·h/mL] | Structure (SMILES) | affinity for 5-HT2A receptors [2] | affinity for 5-HT3A receptors [3] | agonism of 5-HT4 receptors [4] | colonic motility and defecation ([5]; animals) | giant contractions in the colon ([5]; propagated over the length of the colon as a peristaltic wave)
1 | 2265 | 222 | 2.0 | 4093 | 488 | 2.0 | lower | substantially lower | – | – | – | – | – | – | COCCC[N@+]1([O-])CC[C@@H](NC(=O)c2cc(Cl)c(N)c3c2OCC3)CC1.O [compound (1), cis-4-amino-5-chloro-2,3-dihydro-N-[1-(3-methoxypropyl)-4-piperidinyl]-7-benzofurancarboxamide, N-oxide monohydrate] | – | – | – | – | –
2 | – | – | – | – | – | – | – | – | 4372 | 556 | 1 | 660 | 0.5 | 4230 | COCCCN1CCC(NC(=O)c2cc(Cl)c(N)c3c2OCC3)CC1 [prucalopride, 4-amino-5-chloro-2,3-dihydro-N-[1-(3-methoxypropyl)-4-piperidinyl]-7-benzofuran-carboxamide] | no affinity | no affinity | potent and selective agonist | stimulates colonic motility and defecation | induces giant contractions in the colon
